We go through 38 compounds from patent publication US7759367B2, “Pharmaceutical compositions and their uses” (Eisai R&D Management Co., Ltd., priority 2001, dated 2010).

One test concerns male mice of ddy strain. The experiment in a line: Anticonvulsant action induced by AMPA (Test Example 2). The test is classed as in vivo. The following applies: 25 mg/kg orally, AMPA 2 nmole/5 μl/minute/mouse into lateral ventricle 30 minutes or 1 hour after dosing. As for the experimental part: A test compound was suspended in a 0.5% methyl cellulose solution or in sesame oil and was orally administered (25 mg/kg) to male mice of ddy strain. After 30 minutes or 1 hour from the oral administration, AMPA was continuously injected (2 nmole/5 μl/minute/mouse) into lateral ventricle to induce the convulsions. The effect was judged by a time-extending action until the convulsion takes place by a continuous injection of AMPA.
Take `O=c1c(-c2cccnc2Cl)cc(-c2ccccn2)cn1-c1ccccc1` [Example 4, 3-(2-Chloro-3-pyridyl)-5-(2-pyridyl)-1-phenyl-1,2-dihydropyridin-2-one]: the “Anticonvulsant action (time-extending action until convulsion by continuous AMPA injection)” value (“Anticonvulsant action” for short) is given as “significant anticonvulsant action”. For the compound `N#Cc1ccccc1-c1cc(-c2ccccc2)cn(-c2cccnc2)c1=O` [Example 47, 3-(2-Cyanophenyl)-5-phenyl-1-(3-pyridyl)-1,2-dihydropyridin-2-one], the “Anticonvulsant action” value is “significant anticonvulsant action”. As to `O=c1c(-c2ccccc2Cl)cc(-c2ccccn2)cn1-c1ccccc1` [Example 57, 3-(2-Chlorophenyl)-5-(2-pyridyl)-1-phenyl-1,2-dihydropyridin-2-one], the “Anticonvulsant action” value was “significant anticonvulsant action”. As for `O=c1c(-c2ccccc2)cc(-c2ccccn2)cn1-c1ccccc1` [Example 61, 3-Phenyl-5-(2-pyridyl)-1-phenyl-1,2-dihydropyridin-2-one], the “Anticonvulsant action” value is listed as “significant anticonvulsant action”.

The next test has as its system AMPA receptor.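 Note: neurons cultured at least 8 to 10 days atop an astrocyte layer in 96-well plates, calcium entry read as the change in Fura2 fluorescence ratio at 340/380 nm excitation.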
Assay: not given
To be noted: primary culture of rat embryo cerebral cortex nerve cells; Fura2-AM; 2 μM AMPA; 1 μM MK-801.
`N#Cc1ccccc1-c1cc(-c2ccccn2)cn(-c2cccc([N+](=O)[O-])c2)c1=O` [Example 8, 3-(2-Cyanophenyl)-5-(2-pyridyl)-1-(3-nitrophenyl)-1,2-dihydropyridin-2-one] registered an IC50 of 100 nM.

On to `CS(=O)(=O)Nc1cccc(-n2cc(-c3ccccn3)cc(-c3ccccc3C#N)c2=O)c1` [Example 10, 3-(2-Cyanophenyl)-5-(2-pyridyl)-1-(3-methylsulfonylaminophenyl)-1,2-dihydropyridin-2-one], for which it took 50 nM to reach half-maximal inhibition (IC50). Consider `CNc1cccc(-n2cc(-c3ccccn3)cc(-c3ccccc3C#N)c2=O)c1` [Example 11, 3-(2-Cyanophenyl)-5-(2-pyridyl)-1-(3-methylaminophenyl)-1,2-dihydropyridin-2-one], for which the IC50 was 60 nM.

As for `COC(=O)c1cccc(-n2cc(-c3ccccn3)cc(-c3ccccc3C#N)c2=O)c1` [Example 14, 3-(2-Cyanophenyl)-5-(2-pyridyl)-1-(3-methoxycarbonylphenyl)-1,2-dihydropyridin-2-one], it took 100 nM to reach half-maximal inhibition (IC50).

Compound `CNC(=O)c1cccc(-n2cc(-c3ccccn3)cc(-c3ccccc3C#N)c2=O)c1` [Example 15, 3-(2-Cyanophenyl)-5-(2-pyridyl)-1-(3-methylaminocarbonylphenyl)-1,2-dihydropyridin-2-one] displayed an IC50 of 50 nM. Compound `N#Cc1ccccc1-c1cc(-c2ccccn2)cn(-c2cccc(C=O)c2)c1=O` [Example 20, 3-(2-Cyanophenyl)-5-(2-pyridyl)-1-(3-formylphenyl)-1,2-dihydropyridin-2-one] yielded an IC50 of 40 nM.

Consider `N#Cc1ccccc1-c1cc(-c2ccccn2)cn(-c2cccc(CO)c2)c1=O` [Example 21, 3-(2-Cyanophenyl)-5-(2-pyridyl)-1-(3-hydroxymethylphenyl)-1,2-dihydropyridin-2-one], for which 30 nM corresponded to half-maximal inhibition (IC50). The same measure, in the same setting: the same measure for `N#CCc1cccc(-n2cc(-c3ccccn3)cc(-c3ccccc3C#N)c2=O)c1` [Example 22, 3-(2-Cyanophenyl)-5-(2-pyridyl)-1-(3-cyanomethylphenyl)-1,2-dihydropyridin-2-one]: 60 nM; for `CSc1ccc(-n2cc(-c3ccccn3)cc(-c3ccccc3C#N)c2=O)cc1` [Example 26, 3-(2-Cyanophenyl)-5-(2-pyridyl)-1(4-methylthiophenyl)-1,2-dihydropyridin-2-one]: 20 nM.

In turn, `CS(=O)(=O)c1ccc(-n2cc(-c3ccccn3)cc(-c3ccccc3C#N)c2=O)cc1` [Example 27, 3-(2-Cyanophenyl)-5-(2-pyridyl)-1-(4-methylsulfonylphenyl)-1,2-dihydropyridin-2-one] yielded an IC50 of 50 nM.

In the case of `N#Cc1ccccc1-c1cc(-c2ccccn2)c(=O)n(-c2ccccc2)c1` [Example 33, 3-(2-Pyridyl)-5-(2-cyanophenyl)-1-phenyl-1,2-dihydropyridin-2-one], the IC50 was 700 nM. As for `COc1ccc(-c2cc(-c3ccccn3)cn(-c3ccccc3)c2=O)cn1` [Example 77, 3-(2-Methoxy-5-pyridyl)-5-(2-pyridyl)-1-phenyl-1,2-dihydropyridin-2-one], the IC50 stood at 20 nM. Consider `N#Cc1cccnc1-c1cc(-c2ccccc2)cn(-c2cccnc2)c1=O` [Example 79, 3-(3-Cyano-2-pyridyl)-5-phenyl-1-(3-pyridyl)-1,2-dihydropyridin-2-one], for which half-maximal inhibition (IC50) required 2600 nM. The compound `COc1ccc(-n2cc(-c3ccccn3)cc(-c3cccnc3F)c2=O)cn1` [Example 86, 3-(2-Fluoro-3-pyridyl)-5-(2-pyridyl)-1-(2-methoxy-5-pyridyl)-1,2-dihydropyridin-2-one] yielded an IC50 of 1900 nM. The same measure, in the same setting: then `N#Cc1ccccc1-c1cc(-c2ccccn2)cn(-c2cccc(F)c2)c1=O` [Example 92, 3-(2-Cyanophenyl)-5-(2-pyridyl)-1-(3-fluorophenyl)-1,2-dihydropyridin-2-one], with 50 nM. In turn, `COc1cccc(-n2cc(-c3ccccn3)cc(-c3ccccc3C#N)c2=O)c1` [Example 96, 3-(2-Cyanophenyl)-5-(2-pyridyl)-1-(3-methoxyphenyl)-1,2-dihydropyridin-2-one] displayed an IC50 of 60 nM. `N#Cc1ccccc1-c1cc(-c2ccccn2)cn(-c2cccc(Cl)c2)c1=O` [Example 102, 3-(2-Cyanophenyl)-5-(2-pyridyl)-1-(3-chlorophenyl)-1,2-dihydropyridin-2-one] showed an IC50 of 20 nM. The same measure, in the same setting: then `Cc1cccc(-n2cc(-c3ccccn3)cc(-c3ccccc3C#N)c2=O)c1` [Example 103, 3-(2-Cyanophenyl)-5-(2-pyridyl)-1-(3-tolyl)-1,2-dihydropyridin-2-one], with 30 nM; and `N#Cc1ccccc1-c1cc(-c2ccccn2)cn(-c2ccsc2)c1=O` [Example 105, 3-(2-Cyanophenyl)-5-(2-pyridyl)-1-(thiophen-3-yl)-1,2-dihydropyridin-2-one], with 30 nM. `N#Cc1ccccc1-c1cc(-c2ccccn2)cn(-c2ccoc2)c1=O` [Example 106, 3-(2-Cyanophenyl)-5-(2-pyridyl)-1-(3-furyl)-1,2-dihydropyridin-2-one]: half-maximal inhibition (IC50) was put at 70 nM.

Take `Cc1ccc(-n2cc(-c3ccccn3)cc(-c3ccccc3C#N)c2=O)cc1` [Example 107, 3-(2-Cyanophenyl)-5-(2-pyridyl)-1-(4-tolyl)-1,2-dihydropyridin-2-one]: half-maximal inhibition (IC50) required 70 nM. Same read-out and setting: then `N#Cc1ccccc1-c1cc(-c2ccccn2)cn(-c2ccc(C(F)(F)F)cc2)c1=O` [Example 108, 3-(2-Cyanophenyl)-5-(2-pyridyl)-1-(4-trifluoromethylphenyl)-1,2-dihydropyridin-2-one], with 30 nM; and `COc1ccc(-n2cc(-c3ccccn3)cc(-c3ccccc3C#N)c2=O)cn1` [Example 109, 3-(2-Cyanophenyl)-5-(2-pyridyl)-1-(2-methoxypyridin-5-yl)-1,2-dihydropyridin-2-one], with 10 nM. Still for that read-out and setting: the same measure for `COc1cncc(-n2cc(-c3ccccn3)cc(-c3ccccc3C#N)c2=O)c1` [Example 118, 3-(2-Cyanophenyl)-5-(2-pyridyl)-1-(3-methoxypyridin-5-yl)-1,2-dihydropyridin-2-one]: 100 nM; for `O=c1c(-c2ccc(Cl)cc2Cl)cc(-c2ccccn2)cn1-c1cccnc1` [Example 131, 3-(2,4-Dichlorophenyl)-5-(2-pyridyl)-1-(3-pyridyl)-1,2-dihydropyridin-2-one]: 37000 nM; for `N#Cc1ccccc1-c1cc(-c2ccccn2)cn(-c2cccc(O)c2)c1=O` [Example 315, 3-(2-Cyanophenyl)-1-(3-hydroxyphenyl)-5-(2-pyridyl)-1,2-dihydropyridin-2-one]: 80 nM. Same read-out and setting: the same measure for `O=c1c(C2C3CC4CC(C3)CC2C4)cc(-c2ccccn2)cn1-c1ccccc1` (centres unmarked) [Example 387, 3-(2-Adamantyl)-5-(2-pyridyl)-1-phenyl-1,2-dihydropyridin-2-one]: 7000 nM. `CC1=NN=C(c2ccc(N)cc2)c2cc3c(cc2C1)OCO3` [GYKI 52466, reference compound]: half-maximal inhibition (IC50) was put at 9020 nM.

Staying with this test, now noted: suppression of AMPA-induced calcium influx into nerve cells; Table 2.
Take `COc1ccc(-c2cc(-c3ccccc3C#N)c(=O)n(-c3ccccc3)c2)cn1` [Example 200, 3-(2-Cyanophenyl)-5-(2-methoxypyridin-5-yl)-phenyl-1,2-dihydropyridin-2-one]: the IC50 came out at 2000 nM. As for `N#Cc1ccccc1-c1cc(-c2ccccn2)cn(-c2ccc(N)cc2)c1=O` [Example 215, 1-(4-Aminophenyl)-3-(2-cyanophenyl)-5-(2-pyridyl)-1,2-dihydropyridin-2-one], the IC50 amounted to 100 nM. Consider `N#Cc1ccccc1-c1cc(-c2ccccn2)cn(-c2cccc(OCCCN3CCCCC3)c2)c1=O` [Example 244, 3-(2-Cyanophenyl)-1-(3-piperidinopropoxyphenyl)-5-(2-pyridyl)-1,2-dihydropyridin-2-one], for which the IC50 stood at 1800 nM. As to `O=c1c(-c2cccnc2F)cc(-c2ncccn2)cn1-c1cccnc1` [Example 263, 3-(2-Fluoropyridin-3-yl)-1-(3-pyridyl)-5-(2-pyrimidinyl)-1,2-dihydropyridin-2-one], the IC50 is 1000 nM. Turning to `O=c1c(-c2cccc3ccccc23)cc(-c2ccccn2)cn1-c1cccnc1` [Example 279, 3-(1-Naphthyl)-5-(2-pyridyl)-1-(3-pyridyl)-1,2-dihydropyridin-2-one], the IC50 was 3710 nM. Still for that read-out and setting: then `O=c1c(-c2cc3ccccc3n2S(=O)(=O)c2ccccc2)cc(-c2ccccn2)cn1-c1ccccc1` [Example 293, 3-(1-Benzenesulfonylindol-2-yl)-1-phenyl-5-(2-pyridyl)-1,2-dihydropyridin-2-one], with 3300 nM.
